Values joined by “and” are separate entries in the source; they are usually repeats but may differ in a detail not shown here. Equal entries are not always repeated. Toxic doses and inconclusive results are not listed. Rule for the calls: active = survival T/C of 150% or more; inactive = T/C below 125% in these data.
Test system: BDF1 mice, M5076 sarcoma ip, median survival T/C
Experiment: NCI In Vivo Anticancer Drug Screen. Data for tumor model Sarcoma M5076 (intraperitoneal) in B6D2F1 (BDF1) mice
Conditions: endpoint: median survival time, higher = longer survival
Description: The antitumor activity of compounds was measured in mice bearing transplantable tumors. Survival or tumor size were measured and the results are expressed as the measurement made in the treated group (T) divided by the measurement made in the vehicle treated control group (C). The tumor model used in this assay is Sarcoma M5076 (intraperitoneal) in B6D2F1 (BDF1) mice

[1] = dose: 50.0 mg/kg/injection, schedule: Q04DX004 (ip), vehicle: saline with Tween-80
[2] = dose: 100.0 mg/kg/injection, schedule: Q04DX004 (ip), vehicle: saline with Tween-80
[3] = dose: 200.0 mg/kg/injection, schedule: Q04DX004 (ip), vehicle: saline with Tween-80
[4] = dose: 0.5 mg/kg/injection, schedule: Q04DX005 (ip), vehicle: saline
[5] = dose: 1.0 mg/kg/injection, schedule: Q04DX005 (ip), vehicle: saline
[6] = dose: 0.38 mg/kg/injection, schedule: Q01DX009 (ip), vehicle: saline + alcohol
[7] = dose: 0.75 mg/kg/injection, schedule: Q01DX009 (ip), vehicle: saline + alcohol
[8] = dose: 1.5 mg/kg/injection, schedule: Q01DX009 (ip), vehicle: saline + alcohol
[9] = dose: 3.0 mg/kg/injection, schedule: Q01DX009 (ip), vehicle: saline + alcohol

Measured: T/C

COc1cc2cc(c1Cl)N(C)C(=O)C[C@H](OC(=O)[C@H](C)N(C)C(C)=O)[C@]1(C)O[C@H]1[C@H](C)[C@@H]1C[C@@](O)(NC(=O)O1)[C@H](OC)C=C/C=C(\C)C2
inactive: dose: 37.0 micrograms/kg/injection, schedule: Q04DX004 (ip), vehicle: saline 117 % of control | dose: 37.0 micrograms/kg/injection, schedule: Q04DX005 (ip), vehicle: saline 113 % of control | dose: 75.0 micrograms/kg/injection, schedule: Q04DX004 (ip), vehicle: saline 112 % of control | dose: 75.0 micrograms/kg/injection, schedule: Q04DX005 (ip), vehicle: saline 123 % of control | dose: 150.0 micrograms/kg/injection, schedule: Q04DX004 (ip), vehicle: saline 119 % of control

O=C(NC(Cc1ccc(I)cc1)C(=O)O)c1cccc(Br)c1 (centres undefined)
inactive: dose: 100.0 mg/kg/injection, schedule: Q04DX004 (ip), vehicle: Klucel (hydroxypropylcellulose) (HPC) 116 % of control | dose: 200.0 mg/kg/injection, schedule: Q04DX004 (ip), vehicle: Klucel (hydroxypropylcellulose) (HPC) 114 % of control | dose: 400.0 mg/kg/injection, schedule: Q04DX004 (ip), vehicle: Klucel (hydroxypropylcellulose) (HPC) 99 % of control

CC(/C=N/N=C(N)N)=N\N=C(N)N
inactive: dose: 32.4 mg/kg/injection, schedule: Q04DX005 (ip), vehicle: saline 110 % of control | dose: 54.0 mg/kg/injection, schedule: Q04DX005 (ip), vehicle: saline 96 % of control | dose: 90.0 mg/kg/injection, schedule: Q04DX005 (ip), vehicle: saline 110 % of control

COc1cc(C)c(C2NC(=O)c3ccccc3N2)cc1C (centres undefined)
inactive: dose: 12.5 mg/kg/injection, schedule: Q04DX004 (ip), vehicle: saline with Tween-80 102 % of control | dose: 25.0 mg/kg/injection, schedule: Q04DX004 (ip), vehicle: saline with Tween-80 102 % of control | [1] 90 % of control | [2] 105 % of control | [3] 124 % of control

COc1cc(NCc2ccc3nc(N)nc(N)c3c2C)cc(OC)c1OC
active: dose: 10.0 mg/kg/injection, schedule: Q01DX009 (ip), vehicle: Klucel (hydroxypropylcellulose) (HPC) 173 % of control | dose: 15.0 mg/kg/injection, schedule: Q04DX005 (ip), vehicle: Klucel (hydroxypropylcellulose) (HPC) 168 % of control | dose: 20.0 mg/kg/injection, schedule: Q01DX009 (ip), vehicle: Klucel (hydroxypropylcellulose) (HPC) 173 % of control | dose: 30.0 mg/kg/injection, schedule: Q04DX005 (ip), vehicle: Klucel (hydroxypropylcellulose) (HPC) 171 % of control | dose: 60.0 mg/kg/injection, schedule: Q04DX005 (ip), vehicle: Klucel (hydroxypropylcellulose) (HPC) 206 % of control

CN=C(N)N/N=C(\C)c1ccc2sc3ccc(/C(C)=N/NC(N)=NC)cc3c2c1
inactive: [1] 113 % of control | [2] 105 % of control | [3] 119 % of control

CC[C@]1(O)C[C@H]2CN(CCc3c([nH]c4ccccc34)[C@@](C(=O)OC)(c3cc4c(cc3OC)N(C)[C@H]3[C@@](O)(C(=O)OC)[C@H](OC(C)=O)[C@]5(CC)C=CCN6CC[C@]43[C@@H]65)C2)C1
active: dose: 0.38 mg/kg/injection, schedule: Q04DX005 (ip), vehicle: saline 180 % of control | dose: 0.75 mg/kg/injection, schedule: Q04DX005 (ip), vehicle: saline 293 % of control | dose: 1.5 mg/kg/injection, schedule: Q04DX005 (ip), vehicle: saline 202 % of control and 401 % of control | dose: 3.0 mg/kg/injection, schedule: Q04DX005 (ip), vehicle: saline 401 % of control and 160 % of control

COC(=O)C1=C2Nc3ccccc3C23CCN2C(O)C4(CC5CC67CCOC6CCN6CCC8(c9cccc(OC)c9N(C4)C58O)C67)C4OCCC4(C1)C23 (centres undefined)
inactive: dose: 3.12 mg/kg/injection, schedule: Q01DX009 (ip), vehicle: Klucel (hydroxypropylcellulose) (HPC) 102 % of control | dose: 6.25 mg/kg/injection, schedule: Q01DX009 (ip), vehicle: Klucel (hydroxypropylcellulose) (HPC) 100 % of control | dose: 12.5 mg/kg/injection, schedule: Q01DX009 (ip), vehicle: Klucel (hydroxypropylcellulose) (HPC) 106 % of control | dose: 25.0 mg/kg/injection, schedule: Q01DX009 (ip), vehicle: Klucel (hydroxypropylcellulose) (HPC) 99 % of control | dose: 50.0 mg/kg/injection, schedule: Q01DX009 (ip), vehicle: Klucel (hydroxypropylcellulose) (HPC) 104 % of control

O=C1c2c(O)ccc(O)c2C(=O)c2c(NCCNCCO)ccc(NCCNCCO)c21
inactive: dose: 2.0 mg/kg/injection, schedule: Q04DX005 (ip), vehicle: saline 99 % of control | dose: 4.0 mg/kg/injection, schedule: Q04DX004 (ip), vehicle: water 100 % of control
active: dose: 0.25 mg/kg/injection, schedule: Q04DX004 (ip), vehicle: water 236 % of control | dose: 0.5 mg/kg/injection, schedule: Q04DX004 (ip), vehicle: water 260 % of control | [4] 401 % of control | dose: 1.0 mg/kg/injection, schedule: Q04DX004 (ip), vehicle: water 260 % of control | [5] 321 % of control | dose: 2.0 mg/kg/injection, schedule: Q04DX004 (ip), vehicle: water 260 % of control

O=C1N[C@H]2[C@H](O)[C@H](O)[C@@H](O)[C@H](O)[C@@H]2c2cc3c(c(O)c21)OCO3
active: [6] 153 % of control | [7] 159 % of control | [8] 161 % of control and 166 % of control | [9] 184 % of control and 165 % of control

CC[C@](O)(C(=O)O)c1cc2n(c(=O)c1CO)Cc1cc3ccccc3nc1-2
inactive: dose: 12.5 mg/kg/injection, schedule: Q04DX004 (ip), vehicle: saline 124 % of control

C[C@@]12C(=O)OC(=O)[C@]1(C)[C@H]1CC[C@@H]2O1
inactive: dose: 0.25 mg/kg/injection, schedule: Q01DX009 (ip), vehicle: acetone 115 % of control | dose: 0.5 mg/kg/injection, schedule: Q01DX009 (ip), vehicle: acetone 120 % of control | dose: 62.5 micrograms/kg/injection, schedule: Q01DX009 (ip), vehicle: acetone 113 % of control | dose: 250.0 micrograms/kg/injection, schedule: Q01DX009 (ip), vehicle: acetone 115 % of control
active: dose: 1000.0 micrograms/kg/injection, schedule: Q01DX009 (ip), vehicle: acetone 150 % of control

CCC/C=C/C=C/C(=O)OC1C(C)C2(O)C3C=C(C)C(=O)C3CC(COC(C)=O)=CC2C2C(C)(C)C12OC(=O)C(C)C (centres undefined)
inactive: [6] 110 % of control | [7] 103 % of control | [8] 110 % of control | [9] 114 % of control | dose: 6.0 mg/kg/injection, schedule: Q01DX009 (ip), vehicle: saline + alcohol 115 % of control

COc1cc2c(cc1OC)C1C(=O)c3ccc4c(c3OC1CO2)CC(C(C)(O)CO)O4 (centres undefined)
inactive: dose: 2.0 mg/kg/injection, schedule: Q01DX009 (ip), vehicle: DMSO 110 % of control | dose: 4.0 mg/kg/injection, schedule: Q01DX009 (ip), vehicle: DMSO 96 % of control | dose: 8.0 mg/kg/injection, schedule: Q01DX009 (ip), vehicle: DMSO 99 % of control

CC(=O)N(C)O
inactive: dose: 37.0 mg/kg/injection, schedule: Q04DX004 (ip), vehicle: saline with Tween-80 99 % of control | dose: 75.0 mg/kg/injection, schedule: Q04DX004 (ip), vehicle: saline with Tween-80 107 % of control | dose: 150.0 mg/kg/injection, schedule: Q04DX004 (ip), vehicle: saline with Tween-80 107 % of control | dose: 300.0 mg/kg/injection, schedule: Q04DX004 (ip), vehicle: saline with Tween-80 113 % of control | dose: 600.0 mg/kg/injection, schedule: Q04DX004 (ip), vehicle: saline with Tween-80 103 % of control

CCC1(O)CC2CN(CCc3c([nH]c4ccccc34)C(C(=O)OC)(c3cc4c(cc3OC)N(C)C3C(O)(C(N)=O)C(O)C5(CC)C=CCN6CCC43C65)C2)C1 (centres undefined) (tested in a mixture with another compound)
active: [4] 208 % of control | [5] 208 % of control

CC1=C[P+](c2ccccc2)(c2ccccc2)C=C(c2ccccc2)O1
inactive: dose: 1.25 mg/kg/injection, schedule: Q04DX004 (ip), vehicle: saline + alcohol 99 % of control | dose: 2.5 mg/kg/injection, schedule: Q04DX004 (ip), vehicle: saline + alcohol 107 % of control | dose: 5.0 mg/kg/injection, schedule: Q04DX004 (ip), vehicle: saline + alcohol 118 % of control

Source: PubChem BioAssay AID286 (DTP/NCI, 2004)
